Laboratory results as given in ChEMBL document CHEMBL5604062, “ASAP - ZIKV NS2B-NS3 protease fluorescence dose response” (2024).
Where “and” joins values, the source holds several entries; their conditions need not be identical. Identical values can stand only once. Residues, ends and D or L forms follow the SMILES beside them. *: point of attachment. pNA = O=[N+]([O-])c1ccc(N*)cc1; Boc = CC(C)(C)OC(=O)*

These compounds were tested against T1, Nonstructural protein 3 (Zika virus, UniProt A0A024AXB9) (assay: Functional biochemical assay to identify treatments for viral infectious disease that targets Zika NS2B-NS3 protease. Utilizing a direct enzyme activity measurement method, reading the fluorescence intensity is used to characterize the relative potency of inhibitors as IC50.).
T1 sequence (A0A024AXB9 whole entry): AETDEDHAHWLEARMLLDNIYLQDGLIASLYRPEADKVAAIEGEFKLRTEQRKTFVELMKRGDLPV
Set-up: species or system PRVABC59

Structure (SMILES)	IC50
CSc1cc2c(cc1NC(=O)c1cc(F)cc3[nH]ncc13)CNC2	0.047 µM and 0.032 µM
O=C1Cc2c(cccc2C(=O)Nc2ccc3[nH]nnc3c2)N1	> 25 µM
CC(C)(C)OC(=O)N1Cc2cc(NC(=O)c3cc(Cl)cc4c3cnn4[C@@H]3CCCCO3)ccc2[C@H]1CO	> 25 µM
O=C(Nc1cc(-c2cccnc2)ccn1)c1cc(C2CC2)[nH]c(=O)c1	> 25 µM
CC(C)c1nnc(-c2nc3c(C(=O)Nc4ccc5c(c4)CNC5)cc(F)cc3[nH]2)s1	0.161 µM and 0.559 µM
N[C@H]1COC[C@H]1n1cc(C(=O)Nc2cc(-c3cccnc3)ccn2)cn1	> 25 µM
Cc1c(C(=O)Nc2cc(C(=O)N3CC[C@H](C(N)=O)C3)ccn2)cc(C2CC2)n1C	> 25 µM
Cc1c(C(=O)Nc2cc(C(=O)N3CC4(CCO4)C3)ccn2)cc(C2CC2)n1C	> 25 µM
O=C1Cc2c(cccc2C(=O)Nc2cnc(OC3CCC3)nc2)N1	> 25 µM
Cn1nc([C@H](Nc2cc([C@H]3CCOC3)ccn2)C(F)(F)F)cc1C1CC1	> 25 µM
Cc1cc(CN)cc(NC(=O)c2cccc3c2CC(=O)N3)c1	3.05 µM
Cc1c(C(=O)Nc2cc(C(=O)N(C)C3COC3)ccn2)cc(C2CC2)n1C	> 25 µM
O=C1Cc2c(cccc2C(=O)Nc2ccc(Cl)c(CO)n2)N1	> 25 µM
NCc1ccc(-c2csc3cc(C(=O)Nc4ccc5c(c4)CNC5)ccc23)cc1	0.888 µM and 0.889 µM
O=C(Nc1ccc2c(c1)CN[C@H]2[C@H](O)CO)c1cc(F)cc2[nH]ncc12	0.241 µM
NCCc1cc(C(=O)Nc2cc(-c3cccnc3)ccn2)no1	> 25 µM
O=C1Cc2c(cccc2C(=O)Nc2ccc(O[C@H]3CCOC3)nc2)N1	> 25 µM

Structure (SMILES)	IC50
Cc1c(C(=O)Nc2cc(C(=O)N3Cc4cn[nH]c4C3)ccn2)cc(C2CC2)n1C	> 25 µM
Clc1cc(CNc2ccc3c(c2)[C@@H]2CC[C@H]3N2)c2cn[nH]c2c1	> 25 µM
O=C1Cc2c(cccc2C(=O)Nc2ccc3c(c2)CNCCO3)N1	1.48 µM
CO[C@H]1CCCN(C(=O)c2ccnc(NC(=O)c3cc(C4CC4)n(C)c3C)c2)C1	> 25 µM
COCCO[C@]1(C)C(=O)Nc2cc(F)cc(C(=O)Nc3ccc4c(c3)CNC4)c21	3.16 µM
O=C1Cc2c(cccc2C(=O)Nc2ccc3c(n2)CNC3)N1	1.42 µM
Cn1nccc1-c1cc(NC(=O)c2cc(F)cc3[nH]ncc23)cc2c1CNC2	0.042 µM and 0.029 µM
C=CC[C@H]1NCc2cc(NCc3cc(Cl)cc4[nH]ncc34)ccc21	> 25 µM
O=C(O)C[C@H]1NCc2cc(NC(=O)c3cc(Cl)cc4[nH]ncc34)ccc21	0.952 µM
O=C(Nc1ccc2c(c1)CN[C@H]2CO)c1cc(F)cc2[nH]ncc12	0.125 µM
Cc1c(C(=O)Nc2cc(Br)c3c(c2)COC3)cc(C2CC2)n1C	> 25 µM
Cc1c(C(=O)Nc2cc(C(=O)N3CC(C(N)=O)C3)ccn2)cc(C2CC2)n1C	> 25 µM
NCc1csc2cc(C(=O)Nc3cc([C@H]4CCOC4)ccn3)ccc12	> 25 µM
CSCC[C@H](NC(=O)OC(C)(C)C)C(=O)N1CCC[C@H]1C(=O)Nc1ccc([N+](=O)[O-])cc1 (Boc-Met-Pro-pNA)	> 99.5 µM
CSCC[C@H](N)C(=O)N1CCC[C@H]1C(=O)Nc1ccc([N+](=O)[O-])cc1 (H-Met-Pro-pNA)	> 99.5 µM
O=C(Nc1ccccc1)OCc1ccccc1 [BENZYL PHENYLCARBAMATE]	> 100 µM
O=C(Nc1ccccc1)Oc1ccccc1 [PHENYL PHENYLCARBAMATE]	> 100 µM

The next lines start with the values.

IC50	Structure (SMILES)
0.064 µM and 0.087 µM	CCOC(=O)[C@H](Nc1ccc2c(c1)CNC2)c1cc(Cl)cc(C2CC2)c1
1.77 µM	O=C(Nc1ccc2c(c1)CNC2)c1ccc2c(c1)C1(CC1)C(=O)N2
0.494 µM	O=C(NCC(F)F)[C@H](Nc1ccc2c(c1)CNC2)c1cc(Cl)ccc1Sc1ccccc1
0.163 µM	CN1CCC[C@H](c2nc3c(C(=O)Nc4ccc5c(c4)CNC5)cc(F)cc3[nH]2)C1=O
1.19 µM	CO[C@]1(C)C(=O)Nc2cc(F)cc(C(=O)Nc3ccc4c(c3)CNC4)c21
0.797 µM and 1.06 µM	O=C(Nc1ccc2c(c1)CNC2)c1ccc2[nH]cc(C3CCNCC3)c2c1
0.768 µM	C[C@]1(OCCCO)C(=O)Nc2cc(F)cc(C(=O)Nc3ccc4c(c3)CNC4)c21
2.48 µM	CC(C)CO[C@]1(C)C(=O)Nc2cc(F)cc(C(=O)Nc3ccc4c(c3)CNC4)c21
3.34 µM	Cc1cc(C(=O)Nc2ccc3c(c2)CNC3)cc2nn[nH]c12
0.875 µM	CCS(=O)(=O)c1ccc(Cl)cc1[C@H](Nc1ccc2c(c1)CNC2)C(=O)NCC(F)F
0.033 µM and 0.021 µM	COc1cc(Cl)cc([C@H](Nc2ccc3c(c2)CNC3)C(=O)NCC(F)F)c1
31 nM (2×) and 18 nM	Cc1ccccc1-c1nc2c(C(=O)Nc3ccc4c(c3)CNC4)cc(F)cc2[nH]1
0.236 µM	O=C(Nc1ccc2c(c1)CNC2)c1cc(F)cc(-c2cnc3n2CCC3)c1
1.14 µM	C[C@]1(OCCO)C(=O)Nc2cc(F)cc(C(=O)Nc3ccc4c(c3)CNC4)c21
0.197 µM	O=C(NCC(F)F)[C@H](Nc1ccc2c(c1)CNC2)c1cc(Cl)cc(Cl)c1OCCN1CCOCC1
3.03 µM	O=C1Cc2c(cccc2C(=O)Nc2ccc3c(c2)CNCC3)N1
0.13 µM	O=C(Nc1ccc2c(c1)CNC2)c1cc(F)cc2[nH]c(-c3cnccc3O)nc12
0.106 µM	CC(C)Oc1ccc(Cl)cc1[C@H](Nc1ccc2c(c1)CNC2)C(=O)NCC(F)F
0.019 µM and < 0.012 µM	Cc1cc([C@H](Nc2ccc3c(c2)CNC3)C(=O)NCC(F)F)cc(C(F)(F)F)c1
0.15 µM	O=C(NCC(F)F)[C@H](Nc1ccc2c(c1)CNC2)c1cc(Br)ccc1OCc1ccccn1
0.104 µM	Cn1ccc(-c2cc(F)cc(C(=O)Nc3ccc4c(c3)CNC4)c2)cc1=O
1.93 µM	CC(=O)N(c1ccc2c(c1)CNC2)[C@H](C(=O)NCC(F)F)c1cc(Cl)cc(C2CC2)c1
0.039 µM and 0.024 µM	O=C(Nc1ccc2c(c1)CNC2)c1cc(F)cc2[nH]c(-c3ccc(F)cc3O)nc12
0.582 µM	N#Cc1c[nH]c2c(C(=O)Nc3ccc4c(c3)CNC4)cccc12
1.17 µM	CN1CCc2c([nH]c3ccc(C(=O)Nc4ccc5c(c4)CNC5)cc23)C1=O
1.19 µM	Cc1[nH]c2c(C(=O)Nc3ccc4c(c3)CNC4)cccc2c1C
0.129 µM	O=C(NCC(F)F)[C@H](Nc1ccc2c(c1)CNC2)c1cc(Cl)ccc1OC[C@H]1CCCO1
1.49 µM	O=C1CCc2cc(C(=O)Nc3ccc4c(c3)CNC4)cc(F)c2N1
1.26 µM	CC(C)O[C@]1(C)C(=O)Nc2cc(F)cc(C(=O)Nc3ccc4c(c3)CNC4)c21

What follows are compounds tested against T1, Nonstructural protein 3 (assay: Functional biochemical assay to identify treatments for viral infectious disease that targets Zika NS2B-NS3 protease. Utilizing a direct enzyme activity measurement method, reading the fluorescence intensity is used to characterize the relative potency of inhibitors as IC50. Synthetic construct has been made based on Zika virus (strain PRVABC59) by Centre for Medicines Discovery, University of Oxford, and the assay has been performed by Enamine biological services, Bienta Ltd.The protocol is publicly available: dx.doi.org/10.17504/protocols.io.36wgqn273gk5/v1).

Structure (SMILES)	IC50
N=C(N)NCCC[C@H](NC(=O)c1nccs1)C(=O)N[C@@H](CCCCN)C(=O)N[C@@H](C(N)=O)c1ccc(OCc2ccc(C(F)(F)F)cc2)cc1	6.21 µM and 4.39 µM and 8.31 µM and 7.7 µM and 6.31 µM and 6.15 µM and 5.91 µM and 5.86 µM and 5.59 µM
N#Cc1cccc(-c2nc3c(C(=O)Nc4cccnc4)cc(Cl)cc3[nH]2)c1	> 25 µM
N#Cc1cccc(-c2nc3c(C(=O)Nc4ccncc4)cc(Cl)cc3[nH]2)c1	> 25 µM
N#Cc1cccc(-c2nc3c(C(=O)NCc4ccccc4)cc(Cl)cc3[nH]2)c1	> 25 µM
N#Cc1cccc(-c2nc3c(C(=O)NCc4ccccn4)cc(Cl)cc3[nH]2)c1	> 25 µM
N#Cc1cccc(-c2nc3c(C(=O)NCc4cccnc4)cc(Cl)cc3[nH]2)c1	> 25 µM

Continued, values first:

IC50	Structure (SMILES)
1.02 µM and 0.213 µM	O=C(NC1CCOCC1)[C@H](Nc1ccc2c(c1)CNC2)c1cc(Cl)cc(C2CC2)c1
4.21 µM	O=C(Nc1ccc2c(c1)CNC2)c1cc(Cl)cc2[nH]c(-c3cccc(F)c3)nc12
2.52 µM	O=C(Nc1ccc2c(c1)CNC2)c1cc(Cl)cc2[nH]c(-c3ccccc3)nc12
